# Assay results reported in patent US20250188417A1, “CARDIOMYOCYTES AND COMPOSITIONS AND METHODS FOR PRODUCING THE SAME” (President and Fellows of Harvard College, priority 2021, published 2025).
# Key:
# [1] = tested on: iPSC-derived cardiomyocytes (CMs); experiment: Quiescence, cell cycle and TNNT2+ flow cytometry after Torin1 treatment; type: cell-based, human
# Experimental: FIG. 10A provides a schematic of a differentiation protocol, with Torin1 treatment performed for 7 days starting ˜2 days after onset of beating, unless otherwise noted. FIG. 10B provides a western analysis of phospho-S6 and phospho-Akt at baseline and 30 minutes, and 2, 4, 10, 24, and 48 hours after a single treatment of iPSC-derived CMs with Torin1 (200 nM), BJRiPS-CMs. […] Torin1 treatment started on day 9, approximately 2 days after onset of CM beating, BJRiPS-CMs, n=3 per group per time point. […] DMSO, dimethylsulfoxide; IWP-4, inhibitor of Wnt production-4; RI, ROCK (Rho-associated, coiled coil containing protein kinase) inhibitor (Y-27632); RPMI, Roswell Park Memorial Institute 1640 medium.
# [2] = tested on: BJRiPS-CMs; experiment: qPCR of sarcomere genes and ion channels after Torin1 treatment; type: cell-based, human
# Experimental: FIG. 11A provides qPCR of selected sarcomere genes (MYH6, MYH7, TNNT2, TNNI3) iPSC-derived cardiomyocytes after treatment with Torin1 (10 nM, 50 nM, or 200 nM) or vehicle control (0.02% DMSO) for 7 days starting ˜2 days after onset of beating. n=3 per condition, *p<0.05, ****p<0.001 by two-way ANOVA with Tukey's multiple comparisons test, BJRiPS-CMs. FIG. 11B provides representative of western blot analysis of TNNT2 and TNNI3 after Torin1 treatment for 7 days starting ˜2 days after onset of beating, β-tubulin depicted as loading control, Gibco iPS-CMs. […] FIG. 11D provides representative image of MTF in diastole and systole, with schematic of MTF on side view in diastole and systole. […]
# FIG. 13A provides qPCR of selected ion channels (KCNJ2, CACNA1c, RY2, ATP2a2, SCN5a, HCN4) of iPSC-derived cardiomyocytes after treatment with Torin1 (10 nM or 200 nM) or vehicle control (0.02% DMSO) for 7 days starting ˜2 days after onset of beating. n=3 per group, *p<0.05, ****p<0.001 by two-way ANOVA with Tukey's multiple comparisons test, BJRiPS line. FIG. 13B provides flow cytometry analysis of mean fluorescence intensity of Kir2.1 (encoded by KCNJ2) after Torin1 treatment for 7 days starting ˜2 days after onset of beating. n=3 per group, *p<0.01 by unpaired t-test, BJRiPS line. […]
# [3] = tested on: iPSC-derived cardiomyocytes; experiment: Muscular thin film (MTF) contractility; type: cell-based, human; settings: Torin1 200 nM for 7 days; muscular thin films
# Experimental: (§1) FIG. 11A provides qPCR of selected sarcomere genes (MYH6, MYH7, TNNT2, TNNI3) iPSC-derived cardiomyocytes after treatment with Torin1 (10 nM, 50 nM, or 200 nM) or vehicle control (0.02% DMSO) for 7 days starting ˜2 days after onset of beating. n=3 per condition, *p<0.05, ****p<0.001 by two-way ANOVA with Tukey's multiple comparisons test, BJRiPS-CMs. FIG. 11B provides representative of western blot analysis of TNNT2 and TNNI3 after Torin1 treatment for 7 days starting ˜2 days after onset of beating, β-tubulin depicted as loading control, Gibco iPS-CMs. […] FIG. 11D provides representative image of MTF in diastole and systole, with schematic of MTF on side view in diastole and systole. FIG. 11E provides representative force versus time plot of muscular thin film (MTF) seeded with iPSC-derived cardiomyocytes treated with Torin1 (200 nM) or vehicle for 7 days starting ˜2 days after onset of beating, BJRiPS-CMs. […] FIG. 11G provides representative immunostained images showing cardiomyocytes treated with or without Torin1 (200 nM×7 days), blue=DAPI, green=alpha-actinin, yellow=F-actin, magenta=TNNT2, BJRiPS-CMs, scale bar=10 μm. […] DMSO, dimethylsulfoxide; TBP, TATA-binding protein.
# [4] = tested on: BJRiPS-CMs; experiment: Sarcomere length by immunostaining; type: cell-based, human; settings: Torin1 200 nM×7 days versus control; unpaired t-test; FIG. 11H
# Experimental: as §1
# [5] = tested on: BJRiPS-CMs; experiment: Seahorse Mito Stress Test oxygen consumption rate; type: cell-based, human; settings: Torin1 200 nM×7 days; normalized to baseline
# Experimental: FIG. 12A provides a profile of average oxygen consumption rate normalized to baseline versus time as evaluated by the Seahorse Mito Stress Test. Open circles=control (n=70 wells), closed squares=Torin1 (69 wells, 200 nM×7 days; BJRiPS-CMs replated into Seahorse plate for 24-48 hours prior to assay), data from two independent experiments combined. […] FIG. 12F provides qPCR of selected genes associated with fatty acid metabolism (PPARGC1a (PGC1α), CD36, SLC27A1 (FATP1), SLC27A6 (FATP6), and LPIN1) or glucose metabolism (GLUT1, GLUT4, PFK, and PYGM) of BJRiPS-CMs after treatment with Torin1 (10 nM, 50 nM, or 200 nM) or vehicle control (0.02% DMSO) for 7 days starting ˜2 days after onset of beating. *p<0.05, **p<0.01, ***p<0.001, ****p<0.0001 by two-way ANOVA with Tukey's multiple comparison's test, n=3 per group. DMSO, dimethylsulfoxide; FCCP, 2-[2-[4-(trifluoromethoxy)phenyl]hydrazinylidene]-propanedinitrile.
# [6] = tested on: BJRiPS-CMs; experiment: Mitochondrial polarization (MitoProbe JC-1); type: cell-based, human; settings: Torin1 200 nM for 7 days
# [7] = tested on: UCSD-CMs; experiment: FluoVolt action potential profile; type: cell-based, human
# Experimental: FIG. 13A provides qPCR of selected ion channels (KCNJ2, CACNA1c, RY2, ATP2a2, SCN5a, HCN4) of iPSC-derived cardiomyocytes after treatment with Torin1 (10 nM or 200 nM) or vehicle control (0.02% DMSO) for 7 days starting ˜2 days after onset of beating. n=3 per group, *p<0.05, ****p<0.001 by two-way ANOVA with Tukey's multiple comparisons test, BJRiPS line. FIG. 13B provides flow cytometry analysis of mean fluorescence intensity of Kir2.1 (encoded by KCNJ2) after Torin1 treatment for 7 days starting ˜2 days after onset of beating. n=3 per group, *p<0.01 by unpaired t-test, BJRiPS line. […] FIG. 13D provides representative images showing cell segmentation performed automatically by the CyteSeer software. Blue=Hoechst stain, Green=FluoVolt. […] CTD25 (25% duration of the calcium transient, or duration at 25% decline from maximum amplitude), CTD75 (75% duration of the calcium transient, or duration at 75% decline from maximum amplitude), T75-25 (time for voltage to decay from 75% to 25% of maximum). […] For Fluovolt data, control n=531 cells, Torin1 n=315 cells, analysis by unpaired t-test.
# [8] = tested on: Gibco iPS-CM; experiment: Western blot of p53 after Torin1 treatment; type: cell-based, human; settings: Torin1 10, 50 or 200 nM for 7 days
# Experimental: (§2) FIG. 14A provides representative western blot of p53, phospho-53, p21 (CDKN1a), GATA4, NKX2.5, and β-tubulin from Gibco iPS-CM lysates treated with 0 (DMSO), 10, 50, or 200 nM Torin1 for 7 days starting ˜2 days after onset of beating. Cells harvested on final day of treatment. FIG. 14B provides cell cycle analysis showing percentage of TNNT2+ BJRiPS-CMs in G0, G1 or S/G2/M phases after treatment with vehicle (DMSO, dimethylsulfoxide), pifithrin-α (10 μM) for 1 week, Torin1 (200 nM) for 7 days or simultaneous treatment with pifithrin-α (10 μM) and Torin1 (200 nM) for 7 days starting ˜2 days after onset of beating. n=3 per group, *p<0.05, **p<0.01, ***p<0.001, ****p<0.0001 by two-way ANOVA with Tukey's multiple comparisons test. FIG. 14C provides representative western blot of p53, TNNI3, p21, and β-tubulin from BJRiPS-derived cardiomyocyte lysates treated with control (DMSO), Torin1 (200 nM), pifithrin-α (10 PM) or Torin1 (200 nM)+pifithrin-α (10 μM) for 7 days beginning ˜2 days after onset of beating. Cells harvested on final day of treatment.
# [9] = tested on: PSC-CMs; settings: inhibition of mTOR signaling during late differentiation; previously suggested; cited from earlier work
# [10] = tested on: iPSC-CMs; experiment: Flow cytometry of marker expression and live cells in iPSC-CMs treated in 3D culture; type: cell-based, human
# Experimental: The UCSD142i-86-1 cell line was used to generate preliminary data. UCSD142i-86-1 cells were differentiated into cardiomyocytes according to previously published protocols (9) adapted to three-dimensional culture in the laboratory. Two days after onset of beating (around day 9 of differentiation), cardiomyocytes were treated with vehicle (DMSO) or different concentrations of quercetin for different time periods. Cells were harvested for qPCR, western, or flow cytometry at different time points.
# [11] = tested on: BJRiPS-CMs; experiment: Western blot and densitometry (MDM2, p53, TNNI3) and cell cycle analysis of BJRiPS-derived cardiomyocytes; type: cell-based, human
# Experimental: FIG. 6A provides a schematic showing proposed mechanism of cardiomyocyte maturation. T3, triiodothyronine. […] FIG. 6C provides representative Western blot of MDM2, p53, TNNI3, and β-tubulin from BJRiPS-derived cardiomyocyte lysates treated with control (DMSO), nutlin-3a Å˜24 hours (10 μmol/L), Torin1 Å˜7 days (200 nmol/L), or Torin1 Å˜7 days (200 nmol/L)+nutlin-3a (10 μmol/L) for 24 hours beginning ≈2 days after onset of beating (nutlin-3a was only administered during the first 24 hours of Torin1 treatment). Cells harvested on final day of treatment, BJRiPS-CMs. […] DMSO indicates dimethylsulfoxide; mTOR, mechanistic target of rapamycin; and TNNT2+ BJRiPS-CMs, troponin T2, cardiac type-positive BJ fibroblast-derived RNA-induced pluripotent stem cell-derived cardiomyocytes.
# as §2
# [12] = tested on: cardiomyocytes; experiment: Flow cytometry in 2D culture (TNNT2, MitoTracker Red CMXRos, superoxide signal); type: cell-based, human; settings: FACS, FIG. 8
# Description: FACS N=3/group, MitoTracker Red CMXRos flow cytometry, 1-way ANOVA with Tukey's multiple comparisons test.
# Reactive oxygen species may regulate cardiomyocyte maturation. FACS, n=3/group.
# [13] = treatment of iPSC-CMs in 3D culture
smiles,measurement,setting,value
CCC(=O)N1CCN(c2ccc(-n3c(=O)ccc4cnc5ccc(-c6cnc7ccccc7c6)cc5c43)cc2C(F)(F)F)CC1 [Torin1],cellular quiescence,[1]; Torin1 for 7 days starting about 2 days after onset of beating,increases
same,percentage of TNNT2+ CMs out of live cell population,"[1]; flow cytometry, Gibco iPS-CMs, one-way ANOVA, FIG. 10D",n.s.
same,expression selected ion channels,[2]; Torin1 10 nM or 200 nM for 7 days,increases
same,"expression of sarcomere genes (MYH6, MYH7, TNNT2, TNNI3)","[2]; Torin1 10, 50 or 200 nM for 7 days",increases
same,contractility,[3],enhances
same,sarcomere length,[4],n.s
same,oxygen consumption rate,[5],increases
same,mitochondrial polarization,[6],increases
same,peak rise time of the action potential profile,"[7]; FluoVolt, FIG. 13F",increases
same,downstroke velocity of the action potential profile,"[7]; FluoVolt, FIG. 13G",increases
same,CTD25 time,"[7]; FluoVolt, versus control, unpaired t-test, FIG. 13H",n.s.
same,plateau phase of the action potential profile,"[7]; representative profile versus control, FIG. 13E",more prolonged
same,p53 expression,[8],increases
same,cellular quiescence,[9],induces
same,maturation of cardiomyocytes,[9],enhances
COc1ccc(C2=N[C@@H](c3ccc(Cl)cc3)[C@@H](c3ccc(Cl)cc3)N2C(=O)N2CCNC(=O)C2)c(OC(C)C)c1 [nutlin-3a],percentage of TNNT2+ iPSC-CMs,"[10]; 3D culture, flow cytometry, FIG. 2A",increases
same,mean fluorescence intensity (MFI) of TNNT2,"[10]; 3D culture, flow cytometry, FIG. 2B",increases
same,% of TNNI3+,"[10]; 3D culture, flow cytometry, FIG. 2C",increases
same,mean fluorescence intensity of TNNI3,"[10]; 3D culture, flow cytometry, FIG. 2D",increases
same,percentage of TNNT2+ iPSC-CMs expressing Kir2.1,"[10]; 3D culture, flow cytometry, FIG. 2E / FIG. 3A",increases
same,mean fluorescence intensity (MFI) of Kir2.1,"[10]; 3D culture, flow cytometry, FIG. 2F / FIG. 3B",increases
same,% of p53+ TNNT2+ iPSC-CMs,"[10]; 3D culture, flow cytometry, FIG. 2G / FIG. 3C",increases
same,mean fluorescence intensity of p53,"[10]; 3D culture, flow cytometry, FIG. 3D",increases
same,expression of Kir2.1,[10]; [13],increases
same,expression of p53,[10]; [13],increases
same,"TNNI3 expression, effect together with Torin1",[11]; nutlin-3a 10 μmol/L during first 24 hours of Torin1 200 nmol/L for 7 days,synergistic effect
same,p53 (Western analysis),[11]; nutlin-3a 10 μmol/L for 24 hours,upregulation
same,TNNI3 expression,"[11]; nutlin-3a 10 μmol/L for 24 hours, about 2 days after onset of beating, Western densitometry",enhances
same,mean fluorescence intensity of superoxide signal,[12],increases
